Test results published in patent US8741836B2, “Polypeptides” (Novo Nordisk A/S, priority 2011, dated 2014).
Starred links: 1 amine or outer side, 2 acyl side, 3 side chain; linkers in the order of their positions; H or OH if unused. Positions of bridges follow the written chain, without caps; N, C: chain ends. Residues, ends and D or L forms follow the SMILES beside them. *: point of attachment. C20 diacid = O=C(O)CCCCCCCCCCCCCCCCCCC(=O)*; γGlu = O=C(O)[C@H](CCC(=O)[*:2])N[*:1]

Test: Assay (III) ThT fibrillation assay for physical stability
Assay type: physicochemical
Details: for ThT pH 4.0 lag time: pH 4.0, ThT fibrillation assay
How it was run: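 Freshly prepared, pH-adjusted formulations with 1 μM ThT incubated at 37 °C under 960 rpm orbital shaking (1 mm), fluorescence (ex 444, em 485 nm) read every 20 min. […] Peptide content before and after measured by reverse-phase HPLC against pramlintide standard.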

CC[C@H](C)[C@H](NC(=O)[C@@H]1CCCN1C(=O)CNC(=O)[C@H](Cc1ccccc1)NC(=O)[C@H](CC(N)=O)NC(=O)[C@H](CO)NC(=O)[C@H](CO)NC(=O)[C@H](CO)NC(=O)[C@H](Cc1c[nH]cn1)NC(=O)[C@H](CCCNC(=N)N)NC(=O)[C@H](CC(C)C)NC(=O)[C@H](Cc1ccccc1)NC(=O)[C@H](CCC(=O)O)NC(=O)[C@H](C)NC(=O)[C@H](CC(C)C)NC(=O)[C@H](CCCNC(=N)N)NC(=O)[C@H](CCC(N)=O)NC(=O)[C@@H](NC(=O)[C@H](C)NC(=O)[C@@H]1CSSC[C@H](NC(=O)[C@H](Cc2c[nH]cn2)NC(=O)CC[C@H](NC(=O)CCCCCCCCCCCCCCCCCCC(=O)O)C(=O)O)C(=O)N[C@@H](CC(N)=O)C(=O)N[C@@H]([C@@H](C)O)C(=O)N[C@@H](C)C(=O)N[C@@H]([C@@H](C)O)C(=O)N1)[C@@H](C)O)C(=O)N[C@@H](CC(C)C)C(=O)N[C@@H](CO)C(=O)N[C@@H](CO)C(=O)N[C@H](C(=O)N[C@@H](CC(N)=O)C(=O)N[C@H](C(=O)NCC(=O)N[C@@H](CO)C(=O)N[C@@H](Cc1c[nH]cn1)C(=O)N[C@H](C(=O)N[C@@H](Cc1ccc(O)cc1)C(N)=O)[C@@H](C)O)C(C)C)[C@@H](C)O [Example 111, N-alpha-[(S)-4-Carboxy-4-(19-carboxynonadecanoylamino)butyryl]-[His1,Glu14,Arg17,Ser21,Ser28,Ser29,His35]-pramlintide] ({C20 diacid-γGlu}-HCNTATCATQRLAEFLRHSSSNFGPILSSTNVGSHTY-NH2; disulfide 2-7)
ThT pH 4.0 lag time: >45 h

CC[C@H](C)[C@H](NC(=O)[C@@H]1CCCN1C(=O)CNC(=O)[C@H](Cc1ccccc1)NC(=O)[C@H](CC(N)=O)NC(=O)[C@H](CC(N)=O)NC(=O)[C@H](CO)NC(=O)[C@H](CO)NC(=O)[C@H](Cc1c[nH]cn1)NC(=O)[C@H](Cc1c[nH]cn1)NC(=O)[C@H](CC(C)C)NC(=O)[C@H](Cc1ccccc1)NC(=O)[C@H](CCC(=O)O)NC(=O)[C@H](C)NC(=O)[C@H](CC(C)C)NC(=O)[C@H](CCCNC(=N)N)NC(=O)[C@H](CCC(N)=O)NC(=O)[C@@H](NC(=O)[C@H](C)NC(=O)[C@@H]1CSSC[C@H](NC(=O)[C@H](CCCCN)NC(=O)CC[C@H](NC(=O)CCCCCCCCCCCCCCCCCCC(=O)O)C(=O)O)C(=O)N[C@@H](CC(N)=O)C(=O)N[C@@H]([C@@H](C)O)C(=O)N[C@@H](C)C(=O)N[C@@H]([C@@H](C)O)C(=O)N1)[C@@H](C)O)C(=O)N[C@@H](CC(C)C)C(=O)N1CCC[C@H]1C(=O)N1CCC[C@H]1C(=O)N[C@H](C(=O)N[C@@H](CC(N)=O)C(=O)N[C@H](C(=O)NCC(=O)N[C@@H](CO)C(=O)N[C@@H](CCCNC(=N)N)C(=O)N[C@H](C(=O)N[C@@H](Cc1ccc(O)cc1)C(N)=O)[C@@H](C)O)C(C)C)[C@@H](C)O [Example 112, N-alpha-[(S)-4-Carboxy-4-(19-carboxynonadecanoylamino)butyryl]-[Glu14,His17,Arg35]-pramlintide] ({C20 diacid-γGlu}-KCNTATCATQRLAEFLHHSSNNFGPILPPTNVGSRTY-NH2; disulfide 2-7 (inferred))
ThT pH 4.0 lag time: >45 h

CC[C@H](C)[C@H](NC(=O)[C@@H]1CCCN1C(=O)CNC(=O)[C@H](Cc1ccccc1)NC(=O)[C@H](CC(N)=O)NC(=O)[C@H](CC(N)=O)NC(=O)[C@H](CO)NC(=O)[C@H](CO)NC(=O)[C@H](Cc1c[nH]cn1)NC(=O)[C@H](Cc1c[nH]cn1)NC(=O)[C@H](CC(C)C)NC(=O)[C@H](Cc1ccccc1)NC(=O)[C@H](CCC(=O)O)NC(=O)[C@H](C)NC(=O)[C@H](CC(C)C)NC(=O)[C@H](CCCNC(=N)N)NC(=O)[C@H](CCC(N)=O)NC(=O)[C@@H](NC(=O)[C@H](C)NC(=O)[C@@H]1CSSC[C@H](NC(=O)[C@H](CCCCN)NC(=O)CC[C@H](NC(=O)CCCCCCCCCCCCCCCCCCC(=O)O)C(=O)O)C(=O)N[C@@H](CC(N)=O)C(=O)N[C@@H]([C@@H](C)O)C(=O)N[C@@H](C)C(=O)N[C@@H]([C@@H](C)O)C(=O)N1)[C@@H](C)O)C(=O)N[C@@H](CC(C)C)C(=O)N1CCC[C@H]1C(=O)N1CCC[C@H]1C(=O)N[C@H](C(=O)N[C@@H](CC(N)=O)C(=O)N[C@H](C(=O)NCC(=O)N[C@@H](CO)C(=O)N[C@@H](CCCCN)C(=O)N[C@H](C(=O)N[C@@H](Cc1ccc(O)cc1)C(N)=O)[C@@H](C)O)C(C)C)[C@@H](C)O [Example 113, N-alpha-[(S)-4-Carboxy-4-(19-carboxynonadecanoylamino)butyryl]-[Glu14,His17,Lys35]-pramlintide] ({C20 diacid-γGlu}-KCNTATCATQRLAEFLHHSSNNFGPILPPTNVGSKTY-NH2; disulfide 2-7 (inferred))
ThT pH 4.0 lag time (physical stability in fibrillogenesis assay) (pH 4.0): >45 h
ThT pH 4.0 lag time: >45 h

CC[C@H](C)[C@H](NC(=O)[C@@H]1CCCN1C(=O)CNC(=O)[C@H](Cc1ccccc1)NC(=O)[C@H](CC(N)=O)NC(=O)[C@H](CC(N)=O)NC(=O)[C@H](CO)NC(=O)[C@H](CO)NC(=O)[C@H](Cc1c[nH]cn1)NC(=O)[C@H](Cc1c[nH]cn1)NC(=O)[C@H](CC(C)C)NC(=O)[C@H](Cc1ccccc1)NC(=O)[C@H](CCC(=O)O)NC(=O)[C@H](C)NC(=O)[C@H](CC(C)C)NC(=O)[C@H](CCCNC(=N)N)NC(=O)[C@H](CCC(N)=O)NC(=O)[C@@H](NC(=O)[C@H](C)NC(=O)[C@@H]1CSSC[C@H](NC(=O)[C@H](CCCCN)NC(=O)CC[C@H](NC(=O)CCCCCCCCCCCCCCCCCCC(=O)O)C(=O)O)C(=O)N[C@@H](CC(N)=O)C(=O)N[C@@H]([C@@H](C)O)C(=O)N[C@@H](C)C(=O)N[C@@H]([C@@H](C)O)C(=O)N1)[C@@H](C)O)C(=O)N[C@@H](CC(C)C)C(=O)N1CCC[C@H]1C(=O)N1CCC[C@H]1C(=O)N[C@H](C(=O)N[C@@H](CC(N)=O)C(=O)N[C@H](C(=O)NCC(=O)N[C@@H](CO)C(=O)N[C@@H](CC(N)=O)C(=O)N[C@@H](Cc1c[nH]cn1)C(=O)N[C@@H](Cc1ccc(O)cc1)C(N)=O)C(C)C)[C@@H](C)O [Example 114, N-alpha-[(S)-4-Carboxy-4-(19-carboxynonadecanoylamino)butyryl]-[Glu14,His17,His36]-pramlintide] ({C20 diacid-γGlu}-KCNTATCATQRLAEFLHHSSNNFGPILPPTNVGSNHY-NH2; disulfide 2-7 (inferred))
ThT pH 4.0 lag time: >45 h

CC[C@H](C)[C@H](NC(=O)[C@@H]1CCCN1C(=O)CNC(=O)[C@H](Cc1ccccc1)NC(=O)[C@H](CC(N)=O)NC(=O)[C@H](CC(N)=O)NC(=O)[C@H](CO)NC(=O)[C@H](CO)NC(=O)[C@H](Cc1c[nH]cn1)NC(=O)[C@H](Cc1c[nH]cn1)NC(=O)[C@H](CC(C)C)NC(=O)[C@H](Cc1ccccc1)NC(=O)[C@H](CCC(=O)O)NC(=O)[C@H](C)NC(=O)[C@H](CC(C)C)NC(=O)[C@H](CCCNC(=N)N)NC(=O)[C@H](CCC(N)=O)NC(=O)[C@@H](NC(=O)[C@H](C)NC(=O)[C@@H]1CSSC[C@H](NC(=O)[C@H](CCCCN)NC(=O)CC[C@H](NC(=O)CCCCCCCCCCCCCCCCCCC(=O)O)C(=O)O)C(=O)N[C@@H](CC(N)=O)C(=O)N[C@@H]([C@@H](C)O)C(=O)N[C@@H](C)C(=O)N[C@@H]([C@@H](C)O)C(=O)N1)[C@@H](C)O)C(=O)N[C@@H](CC(C)C)C(=O)N1CCC[C@H]1C(=O)N1CCC[C@H]1C(=O)N[C@H](C(=O)N[C@@H](CC(N)=O)C(=O)N[C@H](C(=O)NCC(=O)N[C@@H](Cc1c[nH]cn1)C(=O)N[C@@H](CC(N)=O)C(=O)N[C@H](C(=O)N[C@@H](Cc1ccc(O)cc1)C(N)=O)[C@@H](C)O)C(C)C)[C@@H](C)O [Example 115, N-alpha-[(S)-4-Carboxy-4-(19-carboxynonadecanoylamino)butyryl]-[Glu14,His17,His34]-pramlintide] ({C20 diacid-γGlu}-KCNTATCATQRLAEFLHHSSNNFGPILPPTNVGHNTY-NH2; disulfide 2-7 (inferred))
ThT pH 4.0 lag time: >45 h

CC[C@H](C)[C@H](NC(=O)[C@@H]1CCCN1C(=O)CNC(=O)[C@H](Cc1ccccc1)NC(=O)[C@H](CC(N)=O)NC(=O)[C@H](CC(N)=O)NC(=O)[C@H](CO)NC(=O)[C@H](CO)NC(=O)[C@H](Cc1c[nH]cn1)NC(=O)[C@H](Cc1c[nH]cn1)NC(=O)[C@H](CC(C)C)NC(=O)[C@H](Cc1ccccc1)NC(=O)[C@H](CCC(=O)O)NC(=O)[C@H](C)NC(=O)[C@H](CC(C)C)NC(=O)[C@H](CCCNC(=N)N)NC(=O)[C@H](CCC(N)=O)NC(=O)[C@@H](NC(=O)[C@H](C)NC(=O)[C@@H]1CSSC[C@H](NC(=O)[C@H](CCCCN)NC(=O)CC[C@H](NC(=O)CCCCCCCCCCCCCCCCCCC(=O)O)C(=O)O)C(=O)N[C@@H](CC(N)=O)C(=O)N[C@@H]([C@@H](C)O)C(=O)N[C@@H](C)C(=O)N[C@@H]([C@@H](C)O)C(=O)N1)[C@@H](C)O)C(=O)N[C@@H](CC(C)C)C(=O)N1CCC[C@H]1C(=O)N1CCC[C@H]1C(=O)N[C@H](C(=O)N[C@@H](CC(N)=O)C(=O)N[C@@H](Cc1c[nH]cn1)C(=O)NCC(=O)N[C@@H](CO)C(=O)N[C@@H](CC(N)=O)C(=O)N[C@H](C(=O)N[C@@H](Cc1ccc(O)cc1)C(N)=O)[C@@H](C)O)[C@@H](C)O [Example 116, N-alpha-[(S)-4-Carboxy-4-(19-carboxynonadecanoylamino)butyryl]-[Glu14,His17,His32]-pramlintide] ({C20 diacid-γGlu}-KCNTATCATQRLAEFLHHSSNNFGPILPPTNHGSNTY-NH2; disulfide 2-7)
ThT pH 4.0 lag time: >45 h
